12 molecules from patent US12441691B2 (Cytokinetics, Inc., priority 2020, dated 2025) can be followed below.

The experiment concerns rabbit skeletal myofibrils (fast skeletal myofibrils). The experiment can be described thus: Activation of fast skeletal myofibrils (PUMA assay, AC1.4). It is filed as biochemical. The conditions noted are these: calcium at pCa25, AC1.4 = concentration at which the compound increased the enzymatic activity. The procedure, abridged: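 Detergent-washed rabbit psoas myofibrils (~90% fast fibers), calcium set to give 25% of maximal rate (pCa25). ATPase followed by pyruvate kinase/lactate dehydrogenase-coupled NADH oxidation, absorbance at 340 nm. PM12 buffer: 12 mM PIPES, 2 mM MgCl2, 1 mM DTT, pH 6.8.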

With `CC[C@H](C)[C@H]1C(=O)Nc2ccccc2CN1C(=O)Nc1cccn(CCOC)c1=O` [Compound 255, (S)-3-((S)-sec-butyl)-N-(1-(2-methoxyethyl)-2-oxo-1,2-dihydropyridin-3-yl)-2-oxo-1,2,3,5-tetrahydro-4H-benzo[e][1,4]diazepine-4-carboxamide], the AC1.4 stood at 0.13 µM.

Regarding `CC[C@H](C)[C@H]1C(=O)Nc2ccccc2CN1C(=O)N[C@@H](C)C(N)=O` [Compound 256, (S)-N-((S)-1-amino-1-oxopropan-2-yl)-3-((S)-sec-butyl)-2-oxo-1,2,3,5-tetrahydro-4H-benzo[e][1,4]diazepine-4-carboxamide], the AC1.4 is 1.89 µM.

As to `CC[C@H](C)[C@H]1C(=O)Nc2ccccc2CN1C(=O)Nc1cc(C(F)(F)F)c[nH]c1=O` [Compound 257, (S)-3-((S)-sec-butyl)-2-oxo-N-(2-oxo-5-(trifluoromethyl)-1,2-dihydropyridin-3-yl)-1,2,3,5-tetrahydro-4H-benzo[e][1,4]diazepine-4-carboxamide], the AC1.4 was found to be 0.02 µM.

Turning to `CC[C@H](C)[C@H]1C(=O)Nc2ccccc2CN1C(=O)Nc1cc(-c2ccncc2)c[nH]c1=O` [Compound 258, (S)-3-((S)-sec-butyl)-2-oxo-N-(6-oxo-1,6-dihydro-[3,4′-bipyridin]-5-yl)-1,2,3,5-tetrahydro-4H-benzo[e][1,4]diazepine-4-carboxamide], the AC1.4 is 0.29 µM.

On to `CC[C@H](C)[C@H]1C(=O)Nc2ccccc2CN1C(=O)NCC(=O)N1CCC[C@H]1C(=O)O` [Compound 259, ((S)-3-((S)-sec-butyl)-2-oxo-2,3,4,5-tetrahydro-1H-benzo[e][1,4]diazepine-4-carbonyl)glycyl-L-proline], for which the AC1.4 is 2.44 µM.

As for `CC[C@H](C)[C@H]1C(=O)Nc2ccccc2CN1C(=O)NCCN1CCNC1=O` [Compound 260, (S)-3-((S)-sec-butyl)-2-oxo-N-(2-(2-oxoimidazolin-1-yl)ethyl)-1,2,3,5-tetrahydro-4H-benzo[e][1,4]diazepine-4-carboxamide], the AC1.4 is 1.91 µM.

For the molecule `CC[C@H](C)[C@H]1C(=O)Nc2ccccc2CN1C(=O)NCC1(CO)COC1` [Compound 261, (S)-3-((S)-sec-butyl)-N-((3-(hydroxymethyl)oxetan-3-yl)methyl)-2-oxo-1,2,3,5-tetrahydro-4H-benzo[e][1,4]diazepine-4-carboxamide], the AC1.4 is 3.34 µM.

Regarding `CC[C@H](C)[C@H]1C(=O)Nc2ccccc2CN1C(=O)NCCCCN1CCC(C(N)=O)CC1` [Compound 262, (S)-3-((S)-sec-butyl)-N-(4-(4-carbamoylpiperidin-1-yl)butyl)-2-oxo-1,2,3,5-tetrahydro-4H-benzo[e][1,4]diazepine-4-carboxamide], the AC1.4 was found to be 0.46 µM.

For `CC[C@H](C)[C@H]1C(=O)Nc2ccccc2CN1C(=O)NCC(C)(C)C(N)=O` [Compound 263, (S)-N-(3-amino-2,2-dimethyl-3-oxopropyl)-3-((S)-sec-butyl)-2-oxo-1,2,3,5-tetrahydro-4H-benzo[e][1,4]diazepine-4-carboxamide], the AC1.4 worked out at 2.70 µM.

Consider `CC[C@H](C)[C@H]1C(=O)Nc2ccccc2CN1C(=O)N1CC(N2CCCC2)C1` [Compound 264, (S)-3-((S)-sec-butyl)-4-(3-(pyrrolidin-1-yl)azetidine-1-carbonyl)-1,3,4,5-tetrahydro-2H-benzo[e][1,4]diazepin-2-one], for which the AC1.4 came to 0.84 µM.

Take `CC[C@H](C)[C@H]1C(=O)Nc2ccccc2CN1C(=O)N1CC(N2CCN(C)CC2)C1` [Compound 265, (S)-3-((S)-sec-butyl)-4-(3-(4-methylpiperazin-1-yl)azetidine-1-carbonyl)-1,3,4,5-tetrahydro-2H-benzo[e][1,4]diazepin-2-one]: the AC1.4 amounted to 0.70 µM.

Turning to `CC[C@H](C)[C@H]1C(=O)Nc2ccccc2CN1C(=O)N1CC(N2CCOCC2)C1` [Compound 266, (S)-3-((S)-sec-butyl)-4-(3-morpholinoazetidine-1-carbonyl)-1,3,4,5-tetrahydro-2H-benzo[e][1,4]diazepin-2-one], the AC1.4 worked out at 2.47 µM.
